From US20230391752A1, “PYRROLIDINE-3-CARBOXAMIDE DERIVATIVES AND RELATED USES” (Chulalongkorn University, priority 2020, published 2023)

Columns and labels:
[1] = tested on: HBV; experiment: Effect on intrahepatic HBV DNA levels in HepG2.2.15 cells (EC50); assay type: cell-based; settings: Hepatitis B virus, 144 h, 6 days, intrahepatic HBV DNA by qPCR, read-out: Anti-HBV DNA (EC50)
Procedure: HepG2.2.15 cells were treated with compounds, at various concentrations in 10% FCS containing medium, at 37° C. for three days. After that the medium was removed and fresh medium containing the compound was added to the cells for another 3 days. After 6 days of treatment, intrahepatic HBV DNA from cell lysates were isolated. Then qPCR reaction of DNA was performed to measure total HBV DNA levels using specific primer set. The fifty-percent effective concentrations (EC50) for HBV DNA inhibition, relative to no drug controls, was determined using nonlinear fitting curve model. EC50 ranges for HBV DNA inhibition were as follows: A>0.3 μM, B=0.05-0.3 μM, C<0.05 μM (Table B).

[2] = Pharmacokinetic study in dogs; assay type: in vivo, male Beagle dogs; settings: for F (%) Dog: PO 0.3 to 2.0 mg/kg; for half-life / clearance / Vd: male, Beagle, dog, plasma; for half-life: read-out: t1/2 (h) Dog (converted); for clearance / Vd: IV 0.2 to 0.5 mg/kg; for clearance: read-out: CL (mL/min/kg) Dog; for Vd: read-out: Vd,ss (L/kg) Dog
Procedure: (§1) Test compounds were administered to male Sprague-Dawley rats and male Beagle dogs by oral (PO) and intravenous (TV) administration. For TV dosing, test compounds were dosed at 0.2 to 0.5 mg/kg using a formulation of 10% dimethyl sulfoxide in 20% hydroxypropyl beta-cyclodextrin solution via IV bolus. For PO dosing, test compounds were dosed at 0.3 to 2.0 mg/kg using a formulation of 40% polyethylene glycol 400 in water via oral gavage. Blood samples were collected at pre-dose and various time points up to 24 hours post-dose, and centrifuged to obtain plasma samples. The plasma concentrations of test compounds were quantified by LC-MS/MS methods. The relevant pharmacokinetic parameters (Table D) were calculated via non-compartmental analysis using WinNonlin (Phoenix™, version 8.3).

[3] = tested on: HBV; experiment: In vitro anti-HBV activity in HepG2.2.15 cell line (intracellular HBV DNA by qPCR at 1 μM); assay type: cell-based; settings: Hepatitis B virus, 144 h; HepG2.2.15 cells, 1 μM compound, 6 days, intracellular HBV DNA as percentage compared to vehicle control (0.5% DMSO)
Method in brief: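 HepG2.2.15 cells given compound at 1 μM (0.5% DMSO final) for 3 days, then fresh compound-containing medium for 3 more days. After 6 days intracellular HBV DNA measured by qPCR. Expressed as % of 0.5% DMSO vehicle control and binned into letter ranges.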

[4] = target: T1, HBV core protein (Cp149) (Hepatitis B virus genotype D subtype ayw, UniProt P03146); experiment: HBV capsid assembly by size exclusion chromatography (SEC); assay type: biochemical; settings: 50 μM compound, 15 μM Cp149, 16 hours at 21° C.
T1 construct: HBV core C-terminally truncated protein (HBV Cp149); made in house
T1 sequence (P03146 1-149): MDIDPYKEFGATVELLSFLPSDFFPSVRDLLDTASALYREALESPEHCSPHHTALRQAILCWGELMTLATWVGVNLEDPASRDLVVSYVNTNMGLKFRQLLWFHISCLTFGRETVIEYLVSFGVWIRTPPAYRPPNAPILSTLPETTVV

[5] = Cytotoxicity (MTT) in HepG2.2.15 cells; assay type: cell-based; settings: human, 6 days treatment, read-out: HepG2.1.15 cytotoxicity (CC50)
Procedure: HepG2.2.15 cells were seeded onto 96-well culture plate and allowed to adhere for 24 hours. The cells were treated with various concentrations of the compounds for 6 days. After treatment, the culture media were discarded and further incubated with serum-free media containing […] of 3-(4,5-dimethylthiazol-2-yl)-2,5-diphenyl tetrazolium bromide (MTT) for 2 hour. The resulting formazan crystals were completely dissolved in dimethyl sulfoxide (DMSO), and then measured absorbance at 570 nm using microplate reader. The concentrations of compounds producing 50% cell death (CC50) were determined from a fitting of concentration-response curve (% cell viability versus concentration) to a four-parameter equation.

[6] = Pharmacokinetic study in rats; assay type: in vivo, male Sprague-Dawley rats; settings: for CL (mL/min/kg) Rat / Vd / clearance: IV 0.2 to 0.5 mg/kg; for Vd / half-life / clearance: male, Sprague-Dawley, plasma, rat; for Vd: read-out: Vd,ss (L/kg) Rat; for half-life: read-out: t1/2 (h) Rat (converted); for F (%) Rat: PO 0.3 to 2.0 mg/kg; for clearance: read-out: CL (mL/min/kg) Rat
Procedure: as §1

[7] = target: T1, HBV core protein (Cp149); experiment: HBV capsid assembly by electron microscopy (EM); assay type: biochemical; settings: 50 μM compound, 15 μM Cp149, negative stain
[8] = target: T2, HBV capsid (Hepatitis B virus genotype D subtype ayw, UniProt P03146); experiment: Mechanistic study in stably HBV expressed HepG2.2.15 cells (capsid, encapsidated DNA/RNA, core protein blots); assay type: cell-based; settings: HepG2.2.15, 6 days; for HBV capsid (formation of DNA- and RNA-devoid capsid): various concentrations; for Intracellular HBV core protein level: western blot
T2 construct: expressed in transfected cells; host or cells: HepG2.2.15
T2 sequence (P03146 whole entry): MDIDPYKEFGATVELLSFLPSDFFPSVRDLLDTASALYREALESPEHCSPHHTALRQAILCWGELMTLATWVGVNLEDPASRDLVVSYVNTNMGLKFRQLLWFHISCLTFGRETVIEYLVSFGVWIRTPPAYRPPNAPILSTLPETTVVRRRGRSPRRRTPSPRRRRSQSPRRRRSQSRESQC
Procedure: The stably HBV expressed HepG2.2.15 cells were treated with test compounds, at various concentrations in culture medium, at 37° C. for three days. After that the medium was removed and fresh medium containing the compound was added to the cells for another 3 days. After 6 days of treatment, cellular lysates from the treated cells were assessed by non-denatured agarose gel electrophoresis. HBV capsid was detected by western blot with monoclonal anti-HBV core. Encapsidated HBV DNA and RNA were detected by southern blot and northern blot. Intracellular HBV core protein was assessed by western Blot with a monoclonal mouse anti-HBV core. β-actin protein assessed by western blot was used as an internal control.

[9] = tested on: HBV genotype D; experiment: HBV-infected primary human hepatocytes (PHH); assay type: cell-based, Hepatitis B virus; settings: treatment scheme 1, southern blot
Procedure: Primary human hepatocytes (PHH) were infected with HBV genotype D produced from HepG2.2.15 cell line on day 1 after plating. Subsequently, the PHH were treated with various concentrations of compounds into 2 different treatment schemes. For treatment scheme 1, the compounds were added into PHH simultaneously with infection media, and incubated for additional 6 days. For treatment scheme 2, the compounds were added into PHH at day 3 after infection, and further incubated for 6 days. After treatment, the cell culture supernatants were collected for the determinations of HBV DNA by qPCR, pgRNA by RT-PCR, HBsAg and HBeAg by ELISA, and cell viability by CCK-8. The cells were harvested for detection of intracellular cccDNA by southern blot.

Compound	EC50 [1] [µM]	F (%) Dog [2] [%]	half-life [2] [h]	clearance [2] [mL/min/kg]	Vd [2] [L/kg]	activity at 1 µM [3] [%]	Size of induced capsids based on SEC retention times [4]	CC50 at 6 days [5] [µM]	CL (mL/min/kg) Rat [6] [mL/min/kg]	Vd [6] [L/kg]	half-life [6] [h]	Capsid morphology by EM [7]	HBV capsid (formation of DNA- and RNA-devoid capsid) [8]	Intracellular HBV core protein level [8]	F (%) Rat [6] [%]	clearance [6] [mL/min/kg]	cccDNA establishment in PHH [9]	Formation of capsids (SEC) [4]
Cc1ncnc(C)c1-c1ccc(C(=O)N2CC[C@H](C(=O)Nc3cc(F)c(F)c(F)c3)C2)[nH]1 [Example 85, (S)-1-(5-(4,6-dimethylpyrimidin-5-yl)-1H-pyrrole-2-carbonyl)-N-(3,4,5-trifluorophenyl) pyrrolidine-3-carboxamide]	< 0.05	~100	6.2	4.4	1.64	< 45	induced capsids similar in size to NVR 3-778	10 to 25	15.2	2.88	3.6	–	–	–	–	–	–	–
Cc1ncnc(C)c1-c1ccc(C(=O)N2CC[C@H](C(=O)Nc3ccc(F)c(Cl)c3)[C@@H]2C)[nH]1 [Example 104, (2S,3S)—N-(3-chloro-4-fluorophenyl)-1-(5-(4,6-dimethylpyrimidin-5-yl)-1H-pyrrole-2-carbonyl)-2-methylpyrrolidine-3-carboxamide]	< 0.05	53	14.2	1.5	1.67	< 45	induced capsids similar in size to NVR 3-778	10 to 25	12.3	1.93	1.9	showed similar results as for NVR 3-778	dose-dependently accelerated formation of DNA- and RNA-devoid capsid	had no effect on intracellular HBV core protein level	66	–	–	–
Cc1ncnc(C)c1-c1ccc(C(=O)N2CC[C@H](C(=O)Nc3ccc(F)c(Cl)c3)C2)[nH]1 [Example 99, (S)—N-(3-chloro-4-fluorophenyl)-1-(5-(4,6-dimethylpyrimidin-5-yl)-1H-pyrrole-2-carbonyl) pyrrolidine-3-carboxamide]	< 0.05	–	–	–	–	< 45	induced capsids similar in size to NVR 3-778	10 to 25	–	2.34	1	–	–	–	36	38.4	–	–
C[C@H]1[C@@H](C(=O)Nc2cc(F)c(F)c(F)c2)CCN1C(=O)c1ccc(-c2ccnnc2)[nH]1 [Example 83, (2S,3S)-2-methyl-1-(5-(pyridazin-4-yl)-1H-pyrrole-2-carbonyl)-N-(3,4,5-trifluorophenyl)pyrrolidine-3-carboxamide]	< 0.05	–	–	–	–	< 45	induced capsids similar in size to NVR 3-778	> 25	–	0.13	5.5	–	–	–	82	0.3	–	–
C[C@H]1[C@@H](C(=O)Nc2ccc(F)c(C#N)c2)CCN1C(=O)c1ccc(C2CC2)[nH]1 [Example 74, (2S,3S)—N-(3-cyano-4-fluorophenyl)-1-(5-cyclopropyl-1H-pyrrole-2-carbonyl)-2-methylpyrrolidine-3-carboxamide]	0.05 to 0.3	–	–	–	–	< 45	induced capsids similar in size to NVR 3-778	10 to 25	–	0.72	3.4	–	–	–	~100	3	–	–
C=C1[C@H](CO)[C@@H](O)C[C@@H]1n1cnc2c(=O)[nH]c(N)nc21 [Entecavir, entecavir, reference compound]	–	–	–	–	–	–	–	–	–	–	–	–	had no effects	had no effects	–	–	had no effect on cccDNA establishment	–
COC(=O)C1=C(C)NC(c2ncc(F)cc2F)=N[C@H]1c1ccc(F)cc1Cl [BAY 41-4109, reference compound]	–	–	–	–	–	–	larger in size, as compared to NVR 3-778	–	–	–	–	the capsids appeared larger and misassembled with an irregular shape	–	–	–	–	–	increased the formation of capsids
C[C@H]1[C@@H](C(=O)Nc2cc(F)c(F)c(F)c2)CCN1C(=O)c1ccc(C#N)[nH]1 [Example 19, (2S,3S)-1-(5-cyano-1H-pyrrole-2-carbonyl)-2-methyl-N-(3,4,5-trifluorophenyl)pyrrolidine-3-carboxamide]	0.05 to 0.3	–	–	–	–	< 45	induced capsids similar in size to NVR 3-778	> 25	–	–	–	–	–	–	–	–	–	–
Cc1ccc(C(=O)N2CC[C@H](C(=O)Nc3cc(F)c(F)c(Cl)c3)[C@@H]2C)[nH]1 [Example 20, (2S,3S)—N-(3-chloro-4,5-difluorophenyl)-2-methyl-1-(5-methyl-1H-pyrrole-2-carbonyl) pyrrolidine-3-carboxamide]	> 0.3	–	–	–	–	< 45	induced capsids similar in size to NVR 3-778	10 to 25	–	–	–	–	–	–	–	–	–	–
Cc1cc(NC(=O)[C@H]2CCN(C(=O)c3ccc(-c4c(C)n[nH]c4C)[nH]3)[C@H]2C)ccc1F [Example 103, (2S,3S)-1-(5-(3,5-dimethyl-1H-pyrazol-4-yl)-1H-pyrrole-2-carbonyl)-N-(4-fluoro-3-methylphenyl)-2-methylpyrrolidine-3-carboxamide]	< 0.05	–	–	–	–	< 45	induced capsids similar in size to NVR 3-778	10 to 25	–	–	–	–	–	–	–	–	–	–
Cc1cc(NC(=O)[C@H]2CCN(C(=O)c3ccc(-c4cccnc4C#N)[nH]3)C2)ccc1F [Example 150, (S)-1-(5-(2-cyanopyridin-3-yl)-1H-pyrrole-2-carbonyl)-N-(4-fluoro-3-methylphenyl)pyrrolidine-3-carboxamide]	0.05 to 0.3	–	–	–	–	< 45	induced capsids similar in size to NVR 3-778	> 25	–	–	–	–	–	–	–	–	–	–
